Active and inactive are the calls of the source. The rule behind the calls is not given here.
Key:
GM04663 [1] = assay: Corrector activity at aberrant splicing of ELP1 gene […] mutant (unknown origin) in human GM04663 cells assessed as increase in exon 20 inclusion at 50 uM by Capillary electrophoresis; assay type: cell-based
GM04663 [2] = assay: Corrector activity at aberrant splicing of ELP1 gene […] mutant (unknown origin) in human GM04663 cells assessed as increase in exon 20 inclusion at 10 uM by Capillary electrophoresis; assay type: cell-based
ARPE-19 = assay: Cytotoxicity against human ARPE-19 cell assessed as decrease in resazurin signal incubated with resazurin for 1 hrs by M2 reader analysis; assay type: toxicity, cell-based; design: scale not given: the % may be the effect or the level left; details: arpe-19, 1 h
[3] = Cytotoxicity against human GM04663 cell assessed as decrease in resazurin signal incubated with resazurin for 48 hrs by M2 reader analysis; assay type: functional; design: scale not given: the % may be the effect or the level left
BJ = assay: Cytotoxicity against human BJ cell assessed as decrease in resazurin signal incubated with resazurin for 3 hrs by M2 reader analysis; assay type: toxicity, cell-based; design: scale not given: the % may be the effect or the level left
HaCaT = assay: Cytotoxicity against human HaCaT cell assessed as decrease in resazurin signal incubated with resazurin for 3 hrs by M2 reader analysis; assay type: toxicity, cell-based; design: scale not given: the % may be the effect or the level left

SMILES	Activity (GM04663 [2])	also measured
Clc1cc(NCc2ccco2)ncn1		Activity (GM04663 [1]): Active
Nc1nc(Cl)cc(NCc2ccco2)n1		Activity (GM04663 [1]): Active
c1coc(CNc2ncnc3[nH]c(NCCCN4CCOCC4)nc23)c1	Active	
CN(Cc1ccco1)c1cc(Cl)nc(N)n1		Activity (GM04663 [1]): Active
Nc1nc2c(NCc3ccco3)nc(Cl)nc2[nH]1	inactive	
Nc1nc2c(NCc3ccco3)ncnc2[nH]1	Active	
CN(C)CCNc1nc2c(NCc3ccco3)ncnc2[nH]1	Active	
CCCn1cnc2ncnc(NCc3ccco3)c21	inactive	
Fc1nc(NCc2ccco2)c2nc[nH]c2n1	Active	Activity (ARPE-19): < 20%; Activity [3]: >20%; Activity (BJ): > 20%; Activity (HaCaT): > 20%
CSc1nc2c(NCc3ccco3)ncnc2[nH]1	Active	
Cn1cnc2ncnc(NCc3ccco3)c21	Active	
COc1nc2c(NCc3ccco3)ncnc2[nH]1	Active	
Clc1nc(NCc2ccco2)c2nc(Cl)[nH]c2n1	Active	
NCCNc1nc2c(NCc3ccco3)ncnc2[nH]1	Active	
Clc1nc(NCc2ccco2)c2[nH]cnc2n1	Active	Activity (ARPE-19): < 20%; Activity [3]: >20%; Activity (BJ): > 20%; Activity (HaCaT): > 20%
O=c1[nH]c2ncnc(NCc3ccco3)c2[nH]1	Active	
Nc1c(Cl)ncnc1NCc1ccco1		Activity (GM04663 [1]): Active
c1csc(CNc2[nH]cnc3ncnc2-3)c1	inactive	
c1ccc(CNc2nc3c(NCc4ccco4)ncnc3[nH]2)cc1	Active	Activity (ARPE-19): < 20%; Activity [3]: >20%; Activity (BJ): > 20%; Activity (HaCaT): > 20%
CN(C)CCOc1nc2c(NCc3ccco3)ncnc2[nH]1	Active	
Ic1nc2c(NCc3ccco3)ncnc2[nH]1	inactive	
c1ccc(Nc2nc3c(NCc4ccco4)ncnc3[nH]2)cc1	Active	Activity (ARPE-19): < 20%; Activity [3]: >20%; Activity (BJ): > 20%; Activity (HaCaT): > 20%
CCCOc1nc2c(NCc3ccco3)ncnc2[nH]1	Active	
Cn1cnc2nc(Cl)nc(NCc3ccco3)c21	Active	
c1coc(CNc2ncnc3[nH]cnc23)c1	Active	
C=CCNc1nc2c(NCc3ccco3)ncnc2[nH]1	Active	

Source: ChEMBL document CHEMBL6121015, “Correction of aberrant splicing of ELP1 pre-mRNA by kinetin derivatives - A structure activity relationship study” (Eur J Med Chem, 2025)
